We go through one substance from US20090197805A1, “Insulin receptor antagonists and related compositions, uses and methods” (Novo Nordisk A/S, priority 2005, published 2009).

The target of one experiment is insulin receptor (Homo sapiens, UniProt P06213). The experiment in a line: Competition binding assay with 125I-labeled cognate ligand, insulin receptor. To be noted: 125I-labeled ligand. The method, then: (§1) To test the selectivity of PIRA S661 for the insulin receptor versus a related receptor, the IGF1 receptor, competition binding assays were carried out using both receptors and their cognate ligands in ^125I-labeled form.

A further experiment deals with IGF1 receptor (Homo sapiens, UniProt P08069). The experiment in a line: Competition binding assay with 125I-labeled cognate ligand, IGF1 receptor. To be noted: 125I-labeled ligand, affinity too low to be measured. The method, then:
as §1

Experiment [1] relates to Zucker Obese rats. The experiment in a line: Glucose profile after i.v. S661 at different doses followed by i.p. human insulin. The format is in vivo, rat. On the procedure: FIG. 2. Glucose profile in Zucker obese (ZO) male rats after intravenous (i.v.) administration of different doses of peptidic insulin receptor antagonist S661, followed by intraperitoneal (i.p.) administration of human insulin.
Nine groups of 5 or 6 male, 16 week old Zucker Obese rats (Charles River) with an average weight of about 580 gram were kept on ad lib Purina 5008 and ad lib drinking water and fasted overnight for the experiment. The glucose level was tested at 20 minutes and 10 minutes prior to administration of the PIRA designated S661 (described above) Intravenous (i.v.) administration of different doses of S661 in PBS or vehicle was followed by (10 minutes after administration of S661) intraperitoneal (i.p.) administration of different amounts of human insulin in PBS or vehicle. Blood glucose levels were measured at 10, 20, 30, 40, 60, 80, 120, and 180 minutes after injection of insulin.

For experiment [2], the system named is Zucker Obese rats. The experiment in a line: Glucose profile after i.v. S661 followed after different times by i.p. human insulin. The format is in vivo, rat. To be noted: 30 nmol/kg S661 i.v. at various times before 30 nmol/kg human insulin i.p., FIG. 3. The method, then: FIG. 3. Glucose profile in ZO rats after i.v. administration of Insulin Receptor Antagonist, S661, followed after different times by i.p. administration of human insulin.
Eight groups of 5 to 7 male, 15 week old Zucker Obese rats (Charles River) with an average weight of about 550 gram were kept on ad lib Purina 5008 and ad lib drinking water and fasted overnight for the experiment. PIRA S661 in PBS was administered i.v. at 30 nmol/kg at various times before the i.p. administration of 30 nmol/kg human insulin in PBS.

Another experiment deals with SGBS cells. Nature of the experiment: PIRA antagonist assay: insulin stimulated 14C-glucose uptake. The format is cell-based. To be noted: SGBS cells (human adipocyte cell line); FIG. 1. The method, then:
In order to identify an insulin receptor binding peptide as an antagonist (PIRA), a candidate peptide can be tested in a glucose uptake assay in e.g. SGBS cells (a human adipocyte cell line) or primary rodent adipocytes. Briefly, the cells are incubated with various concentrations of insulin and subsequently ^14C-glucose uptake is measured. To test a peptide for antagonist properties, a submaximally stimulating concentration of insulin (e.g., resulting in half maximal insulin response) is added and also a dilution series of the peptide to be tested. If the peptide is a PIRA, the insulin induced response is reduced to or below the baseline response with increasing concentration of PIRA and the potency of the PIRA can be estimated from the concentration of PIRA necessary to observe the reduction in response.

Setting [3] is: 3 nmol/kg S661 i.v., 30 nmol/kg insulin i.p., Zucker Obese rats.

Ends that are not written are not given here.

Consider “GSLDESFYDWFERQLGGGSGGSSLEEEWAQIQCEVWGRGCPSY-amide (GSLDESFYDWFERQLGGGSGGSSLEEEWAQIQCEVWGRGCPSY-NH2; cysteine pairing not given here) [S661, peptidic insulin receptor antagonist]”, for which the “affinity for the insulin receptor relative to human insulin” value with insulin receptor is given as 48 % of that of human insulin. In the experiment with IGF1 receptor, the “affinity for the IGF1 receptor relative to IGF1” value is “at least 200.000 fold lower than that of IGF1”. In addition, in the experiment with Zucker Obese rats [1] (setting [3]), the “glucose levels as compared to control” value is “slightly higher” and the “glucose levels as compared to insulin alone” value is “significantly higher levels”. Further, the “blood glucose levels versus insulin alone or only vehicle” value with Zucker Obese rats [1] (male Zucker Obese rats, fasted, S661 i.v. 10 minutes before i.p. human insulin, FIG. 2) is “significantly higher”. The “time after administration at which still an effective antagonist (blood glucose)” value in the experiment on Zucker Obese rats [2] is at least 6 h. For the same substance, in the experiment with SGBS cells, the “effect on submaximally insulin stimulated glucose uptake” value is “inhibition of submaximally insulin stimulated glucose uptake”.
